Data as given in the SangsterLogP compilation.

Compared with `CCCS(=O)(=O)c1nnnn1-c1ccc([N+](=O)[O-])cc1`, `CCCCCCS(=O)(=O)c1nnnn1-c1ccc([N+](=O)[O-])cc1` is higher in logP: 2.7 for the first, 4.3 for the second.

Compared with `CS(=O)(=O)c1nnnn1Cc1ccc([N+](=O)[O-])cc1`, `CS(=O)c1nnnn1-c1ccc([N+](=O)[O-])cc1` (stereo unspecified) is lower in logP: 2.1 for the first, 1.4 for the second.

Going from `CC(=O)Oc1ccc(-n2nnnc2S(C)(=O)=O)cc1` to `Cc1ccc(-n2nnnc2S(C)(=O)=O)cc1`, the logP rises from 1.6 to 2.5.

Compared with `CCCCCCCCS(=O)c1nnnn1-c1ccc([N+](=O)[O-])cc1` (stereo unspecified), `CCCCCCS(=O)c1nnnn1-c1ccc([N+](=O)[O-])cc1` (stereo unspecified) is lower in logP: 4.7 for the first, 3.5 for the second.

First: CS(=O)(=O)c1nnnn1C1CCCCC1
Second: CN(C)c1ccc(-n2nnnc2S(C)(=O)=O)cc1
The logP of the first is lower: 2.1 for the first, 2.7 for the second.

`CS(=O)(=O)c1nnnn1-c1cccc(C(F)(F)F)c1` gave a logP of 2.9.
